ChEMBL document CHEMBL1151042, “5-HT4receptor antagonists : oxazolo, oxazino and oxazepino[3,2-a]indole derivatives” (Bioorg Med Chem Lett, 1994)

How the values were obtained:
[1] = target: 5-hydroxytryptamine receptor 4 (Cavia porcellus, UniProt O70528); assay: Ability to block 5-HT4 receptor mediated effect of 5-HT was assessed in the guinea-pig distal colon longitudinal muscle myenteric plexus preparation (LMMP)
[2] = target: Serotonin 4 (5-HT4) receptor (Sus scrofa, UniProt Q6Q253); assay: Compound was evaluated for its ability to inhibit the binding of 5-HT4 receptor radioligand [125I]SB 207710 to piglet hippocampal membrane; assay type: tissue-based, Hippocampus
Sequence of Serotonin 4 (5-HT4) receptor (Q6Q253 whole entry): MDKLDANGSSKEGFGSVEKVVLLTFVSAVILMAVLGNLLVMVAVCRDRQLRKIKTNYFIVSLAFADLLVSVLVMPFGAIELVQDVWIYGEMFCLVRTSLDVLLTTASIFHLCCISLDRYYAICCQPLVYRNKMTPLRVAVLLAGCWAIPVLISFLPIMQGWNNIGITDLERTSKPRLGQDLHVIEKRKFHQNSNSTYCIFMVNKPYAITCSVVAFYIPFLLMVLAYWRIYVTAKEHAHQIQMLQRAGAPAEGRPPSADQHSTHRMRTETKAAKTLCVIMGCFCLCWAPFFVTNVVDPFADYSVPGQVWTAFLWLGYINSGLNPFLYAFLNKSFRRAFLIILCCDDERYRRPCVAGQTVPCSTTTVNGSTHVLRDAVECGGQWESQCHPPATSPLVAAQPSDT

Sequence of 5-hydroxytryptamine receptor 4 (O70528 whole entry): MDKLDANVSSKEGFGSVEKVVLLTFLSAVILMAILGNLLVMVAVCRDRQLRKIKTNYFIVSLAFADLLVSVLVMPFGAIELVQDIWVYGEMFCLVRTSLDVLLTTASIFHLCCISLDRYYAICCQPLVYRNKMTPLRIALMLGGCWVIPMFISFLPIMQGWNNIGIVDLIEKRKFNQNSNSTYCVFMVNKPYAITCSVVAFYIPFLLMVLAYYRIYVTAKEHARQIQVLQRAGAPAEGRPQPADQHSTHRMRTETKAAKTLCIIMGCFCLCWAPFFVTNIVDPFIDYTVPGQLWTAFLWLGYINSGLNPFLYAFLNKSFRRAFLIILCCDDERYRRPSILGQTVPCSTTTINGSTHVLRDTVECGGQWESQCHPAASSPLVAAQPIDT

SMILES | IC50 [1] | Ki [2]
CCCCN1CCC(COC(=O)c2c[nH]c3ccccc23)CC1 | 0.501 nM | 2.51 nM
CCCCN1CCC(COC(=O)c2c3n(c4ccccc24)CCCCO3)CC1 | 0.158 nM | 0.2 nM
CCCCN1CCC(COC(=O)c2c3n(c4ccccc24)CCO3)CC1 | 0.1 nM | 0.0794 nM
CCCCN1CCC(COC(=O)c2c3n(c4ccccc24)CCCO3)CC1 | 0.0251 nM | 0.0631 nM
CCCCN1CCC(COC(=O)c2cc(Cl)c(N)c3c2OCCO3)CC1 | 0.0794 nM | 0.126 nM
